Data taken from patent US5104870A, “Heterocyclic pharmaceutical compounds and use” (Burroughs Wellcome Co., priority 1989, dated 1992).
Where a name gives a salt, the structure may show the parent alone.

test system: tetrabenazine-induced sedation; experiment: Antitetrabenazine test (prevention of tetrabenazine-induced sedation); assay type: in vivo; conditions: Mus musculus, ip; CDl male mice; i.p. as hydrochloride salt in saline 30 min before tetrabenazine hydrochloride 35 mg/kg i.p.; exploratory behavior scored 30 min later; read-out: ED50 (amount of the test compound required to reverse the tetrabenazine effects in 50 percent of the animals tested)
Experimental: Prevention on of tetrabenazine-induced sedation was measured using a modification of the method of Vernier et al., First Hahnemann Symposium on Psychosomatic Medicine, ed. Nodim and Moyer, pub Lea and Febiger, Philadelphia. 1962.
Mice, groups of 12 CDl males each, were injected intraperitoneally (i.p.) with the hydrochloride salt of a compound of formula (I) in physiological saline solution or with physiological saline solution alone. Thirty minutes later each of the mice was injected (i.p.. 35 mg/kg) with a solution of tetrabenazine hydrochloride. Thirty minutes after the injection of tetrabenazine each mouse was examined for its level of exploratory behavior which was scored on a modification of the arbitrary scale defined by Vernier et al The result reported in Table I as the ED50 value is the amount of the test compound required to reverse the tetrabenazine effects in 50 percent of the animals tested.

`C[C@@H]1CO[C@@](O)(c2cc(F)cc(F)c2)[C@H](C)N1C` (relative stereo) [Example 4, (+-)-(2R*,3R*,5S*)-2-(3,5-Difluorophenyl)-3,4,5,trimethyl-2-morpholinol hydrochloride] was tested. Which ED50 did it give?
Its ED50 is 3 mg/kg.

How did the ED50 turn out when `C[C@@H]1CO[C@@](O)(c2cc(F)cc(F)c2)[C@H](C)N1.Cl` [Example 2, (2S,3S,5R)-2-(3,5-difluorophenyl)-3,5-dimethyl-2-morpholinol hydrochloride] was run?
The ED50 was 5 mg/kg.

For `C[C@@H]1CO[C@@](O)(c2cc(F)cc(F)c2)[C@H](C)N1C` [Example 3, (2S,3S,5R)-2-(3.5.Difluorophenyl)-3,4,5,trimethyl-2-morpholinol hydrochloride, one-quarter hydrate], which ED50 is on record?
Its ED50 is 0.6 mg/kg.

Which ED50 does the source give for `CCN1[C@H](C)CO[C@@](O)(c2cc(F)cc(F)c2)[C@@H]1C` [Example 5, (2S,3S,5R)-2-(3,5-Difluorophenyl)-4-ethyl-3,5-dimethyl-2-morpholinol hydrochloride, monohydrate] here?
The ED50 was 3 mg/kg.

For `C[C@H]1CO[C@](O)(c2cc(F)cc(F)c2)[C@@H](C)N1.Cl` (relative stereo) [Example 1, (+-)-(2R*,3R*,5S*)-2-(3,5-Difluorophenyl)-3,5-dimethyl-2-morpholinol hydrochloride], which ED50 is on record?
Its ED50 is 2 mg/kg.
